Key:
H1975 = test: Inhibition assay on tumor cell proliferation (CellTiter-Glo), H1975; type: cell-based, Human; settings: Homo sapiens, NCI-H1975; H1975 (L858R and T790M EGFR double mutation), 72 hours, 10% bovine serum
HCC827 = test: Inhibition assay on tumor cell proliferation (CellTiter-Glo), HCC827; type: cell-based; settings: Homo sapiens; HCC827 (ex19del), 72 hours, 10% bovine serum
Description: (§1) By using a CellTiter-Glo luminescence cell viability test kit (Promega, # G7572), the content of adenosine triphosphate (ATP) was determined to assess the cell viability.
(§2) Human colon cancer cell line LOVO and human non-small-cell lung cancer H358 express wild-type EGFR. Human non-small-cell lung cancer cell line HCC827 carries deletion mutation in exon 19 (ex19del). Those cell lines are purchased from Shanghai Fudan IBS Cell Resource Center and American Tissue Culture Collection (ATCC).
(§3) The assay procedure is as follows. The cells in a cell culture plate were digested with a pancreatic enzyme, re-suspended in a DPBS culture medium, and had the cell density counted by Scepter automated cytometer (Millipore # PHCC00000). The cells were diluted to a solution of 44,000 cells per ml. The cell solution with adjusted density was added to the cell assay plate at 90 microliters per well. The plate was placed in an incubator with 5% CO2 at 37° C. for 24 hours of incubation, and then added with different concentrations of subject compounds. The cells were incubated for 72 hours with the compounds in presence of 10% bovine serum. The content of ATP was determined by a CellTiter-Glo® Luminescent Cell Viability Assay kit (see the manufacturer's instruction for details) to evaluate cell-growth inhibition.
(§4) Briefly, 30 μl of CellTiter-Glo® reagent was added to each well, and then shaken for 10 minutes to induce cell lysis. The fluorescent signal was detected and recorded by Fluoroskan Ascent FL (Thermo). The max signal value was obtained from the cells treated by dimethyl sulfoxide for 72 hours. The min signal value was obtained from the medium alone (the number of the cells was 0). Inhibitory rate %=(max signal value−compound signal value)/(max signal value−min signal value)×100. The data was processed by GraphPad Prism V5.0 software (GraphPad Software, San Diego, Calif.). Sigmoidal dose-response curve fitting was performed to calculate the IC50 value.

LOVO = test: Inhibition assay on tumor cell proliferation (CellTiter-Glo), LOVO; type: cell-based, Human; settings: Homo sapiens; LOVO (wild-type EGFR), 72 hours, 10% bovine serum
Description: as §1, §2, §3, §4

H358 = test: Inhibition assay on tumor cell proliferation (CellTiter-Glo), H358; type: cell-based, Human; settings: Homo sapiens, NCI-H358; H358 (wild-type EGFR), 72 hours, 10% bovine serum
How it was run: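 Viability from ATP content by CellTiter-Glo luminescence; inhibition normalised to DMSO (max) and medium-only (min) wells, IC50 by sigmoidal dose-response fitting. LOVO and H358 carry wild-type EGFR; HCC827 has exon 19 deletion.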

H1975 xenograft tumor [1] = test: Potency assay of tumor model, dose-effect relationship, 22 consecutive days; type: in vivo, Balb/C nude mice; settings: for Tumor inhibition T/C value (%) / Weight change (%): po, qd
Description: (§5) Balb/C nude mice were purchased from Beijing Vital River Laboratory Animal Technology Co., Ltd., and housed in SPF animal room. The human non-small-cell lung cancer cell line H1975 in a culture dish was collected by trypsin-EDTA (0.25% trypsin, 1 mM EDTA), and then washed with a serum-free PBS solution. Lastly, the cells were implanted after diluted in a serum-free medium. Only the single cell suspension with a survival rate over 90% (Trypan blue rejection) can be used for injection. 5 million cells suspended in a 0.1 ml serum-free culture were injected into the front right flanking subcutaneous region of each mouse by using a 1 ml syringe and a 25G syringe needle, and the blood vessel was carefully avoided. The tumor size was measured in about one week after implantation. A caliper rule was used to measure the tumor size. The tumor volume was calculated by the following formula: tumor volume=(length×width^2)/2.
Further assay was performed to assess the dose-effect relationship of the inhibition of H1975 transplantation tumor growth by the compounds 51 and 91. […] These compounds were dissolved in 30% sulfobutylated beta-cyclodextrin (SBE-β-CD) and 1N HCl (pH 3-4), respectively. […]

EGFR T790M/L858R = biological target: T1, EGFR T790M/L858R (Homo sapiens, UniProt P00533, L858R/T790M); test: Mutant EGFR T790M/L858R activity inhibition assay (Caliper mobility shift); type: biochemical; settings: read-out: enzyme activity inhibition (IC50) EGFR T790M/L858R
T1 construct: purchased Invitrogen PR8911A
T1 sequence (P00533 25-1210 T790M/L858R): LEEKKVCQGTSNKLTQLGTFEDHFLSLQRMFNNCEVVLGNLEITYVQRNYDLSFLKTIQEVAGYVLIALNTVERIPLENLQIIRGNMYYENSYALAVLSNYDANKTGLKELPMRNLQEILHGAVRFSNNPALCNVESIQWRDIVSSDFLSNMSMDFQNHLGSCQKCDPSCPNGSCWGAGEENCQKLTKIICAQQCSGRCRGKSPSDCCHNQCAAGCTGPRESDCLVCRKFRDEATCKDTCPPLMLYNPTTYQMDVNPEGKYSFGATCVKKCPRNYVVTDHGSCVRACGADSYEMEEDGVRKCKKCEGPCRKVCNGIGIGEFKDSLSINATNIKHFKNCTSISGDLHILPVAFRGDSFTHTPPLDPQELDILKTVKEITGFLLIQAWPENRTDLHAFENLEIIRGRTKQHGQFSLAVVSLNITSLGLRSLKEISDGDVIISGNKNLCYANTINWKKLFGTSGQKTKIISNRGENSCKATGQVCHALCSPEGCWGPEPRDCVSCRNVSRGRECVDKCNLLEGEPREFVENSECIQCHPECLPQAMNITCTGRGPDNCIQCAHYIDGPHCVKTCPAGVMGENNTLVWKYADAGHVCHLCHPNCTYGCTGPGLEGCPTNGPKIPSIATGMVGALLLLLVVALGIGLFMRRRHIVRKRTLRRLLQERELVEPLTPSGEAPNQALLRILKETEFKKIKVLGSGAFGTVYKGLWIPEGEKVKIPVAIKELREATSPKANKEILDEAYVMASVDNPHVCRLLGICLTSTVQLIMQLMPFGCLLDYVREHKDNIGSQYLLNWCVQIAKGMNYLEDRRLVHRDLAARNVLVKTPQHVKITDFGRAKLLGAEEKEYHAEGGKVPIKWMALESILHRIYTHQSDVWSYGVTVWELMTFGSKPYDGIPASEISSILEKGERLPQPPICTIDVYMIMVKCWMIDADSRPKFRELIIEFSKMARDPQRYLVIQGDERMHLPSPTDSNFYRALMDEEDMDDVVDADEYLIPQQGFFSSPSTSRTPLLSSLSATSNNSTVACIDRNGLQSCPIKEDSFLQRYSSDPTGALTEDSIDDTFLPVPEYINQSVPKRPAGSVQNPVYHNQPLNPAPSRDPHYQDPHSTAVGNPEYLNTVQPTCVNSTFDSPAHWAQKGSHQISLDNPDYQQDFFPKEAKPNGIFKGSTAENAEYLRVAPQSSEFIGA
How it was run: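 Compound added in 10% DMSO at 5-fold final concentration; substrate conversion read by Caliper mobility shift. Inhibition = (max−conversion)/(max−min)×100, with max from DMSO no-compound wells and min from no-enzyme wells; IC50 from fitted concentration–response curve.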

H1975 xenograft tumor [2] = test: Potency assay of tumor model, 16 consecutive days; type: in vivo, Balb/C nude mice; settings: oral; for inhibition of growth of H1975 xenograft tumor (in words): 30 mg/kg qd, 16 days
Description: as §5
This experiment studied the inhibition of tumor growth in H1975 xenograft tumor model by the compounds 20, 50, 91, and 118. When the mean volume of H1975 tumor reached about 260 mm^3, the animals were divided into 5 oral administration groups, that is, excipient control group and groups of oral administration of compound 20, compound 50, compound 91, and compound 118, respectively (n=8/group). These compounds were dissolved in 30% sulfobutylated beta-cyclodextrin (SBE-β-CD) and 1N HCl (pH 3-4). […]

[3] = Pharmacokinetics in rats after oral administration; type: in vivo, SD rats; settings: for AUC(0-inf) / Cmax / Tmax / half-life / AUC(0-t): male, SD, rat, 20 mg/kg, plasma; for AUC(0-t): read-out: AUC0-24
Description: (§6) Male SD rats weighing 250-300 g, or male beagles weighing 9-10 kg, were fasted overnight before the experiment. The object compounds were dissolved in 30% sulfobutylated beta-cyclodextrin (SBE-β-CD), and orally administrated to the rats at a dose of 20 mg/kg or to the beagles at a dose of 5 mg/kg. Blood samples were taken at 15 minutes, 30 minutes, 1 hour, 2 hours, 3 hours, 4 hours, 6 hours, 8 hours and 24 hours after administration. 0.3 ml of blood was collected at every time point, placed in a centrifuge tube containing K2-EDTA (ethylenediamine tetraacetic acid dipotassium) and centrifuged (2,000 g, 10 minutes, 4° C.) to collect plasma, which was then stored in an ultra cold storage freezer at −80° C. 50 μL of plasma sample was mixed with 5 μL of internal standard (IS), and then extracted with ethyl acetate. After vacuum drying, the residue was re-dissolved in acetonitrile. The sample was filtered and injected into LC-MS/MS for analysis.

[4] = Pharmacokinetics in beagles after oral administration; type: in vivo; settings: male, beagle, dog, 5 mg/kg, plasma
Description: as §6

SMILES	IC50 (H1975)	IC50 (HCC827)	IC50 (LOVO)	IC50 (H358)	IC50 (EGFR T790M/L858R)	melting point	inhibition of growth of H1975 xenograft tumor (in words) (H1975 xenograft tumor [2])	also measured
C=CC(=O)Nc1cc(Nc2nccc(-c3cn(C)c4ccccc34)n2)c(OC)cc1N(C)CCN(C)C [AZD9291, Osimertinib, reference compound]	< 10 nM	< 10 nM	> 1000 nM	100 to 1000 nM	–	–	–	Tumor inhibition T/C value (%) (H1975 xenograft tumor [1]; 25 mg/kg, 22 consecutive days): −100%; Weight change (%) (H1975 xenograft tumor [1]; 25 mg/kg, 22 consecutive days): −7.2%
C=CC(=O)Nc1cc(Nc2nccc(-n3ccc4cc(CO)ccc43)n2)c(OC)cc1N(C)CCN(C)C [Compound 39, N-(2-((2-(dimethylamino)ethyl)(methyl)amino)-5-((4-(5-(hydroxymethyl)-1H-indol-1-yl)pyrimidin-2-yl)amino)-4-methoxyphenyl)acrylamide]	< 10 nM	< 10 nM	> 1000 nM	100 to 1000 nM	< 1 nM	67 to 68 °C	–	–
C=CC(=O)Nc1cc(Nc2nccc(-n3ccc4nc(OC)ccc43)n2)c(OC)cc1N(C)CCN(C)C [Compound 20, N-(2-((2-(dimethylamino)ethyl)(methyl)amino)-4-methoxy-5-((4-(5-methoxy-1H-pyrrolo[3,2-b]pyridin-1-yl)pyrimidin-2-yl)amino)phenyl)acrylamide]	< 10 nM	–	–	100 to 1000 nM	< 1 nM	–	tumor regression	absorption / blood exposure after oral administration (in words) [3]: well absorbed, with high blood exposure; AUC(0-inf) [3]: 1450 ng·h/mL; Cmax [3]: 350 ng/mL; Tmax [3]: 1.67 h; half-life [3]: 3.7 h; AUC(0-t) [3]: 1440 ng·h/mL
C=CC(=O)Nc1cccc(Nc2nc(Nc3ccc(N4CCN(C(C)=O)CC4)cc3OC)ncc2C(F)(F)F)c1 [CO-1686, Rociletinib, reference compound]	10 to 50 nM	100 to 1000 nM	> 1000 nM	100 to 1000 nM	–	–	–	–
C=CC(=O)Nc1cc(Nc2ncc(C(F)(F)F)c(-n3ccc4ccccc43)n2)c(OC)cc1N(C)CCN(C)C [Compound 5, N-(5-((4-(1H-indol-1-yl)-5-(trifluoromethyl)pyrimidin-2-yl)amino)-2-((2-(dimethylamino)ethyl)(methyl)amino)-4-methoxyphenyl)acrylamide]	< 10 nM	–	> 1000 nM	100 to 1000 nM	1 to 10 nM	161 to 162 °C	–	–
C=CC(=O)Nc1cc(Nc2nccc(-n3ccc4c(F)cccc43)n2)c(OC)cc1N(C)CCN(C)C [Compound 30, N-(2-((2-(dimethylamino)ethyl)(methyl)amino)-5-((4-(4-fluoro-1H-indol-1-yl)pyrimidin-2-yl)amino)-4-methoxyphenyl)acrylamide]	< 10 nM	–	> 1000 nM	100 to 1000 nM	< 1 nM	165.5 to 166.5 °C	–	–

Now from value to molecule, other results behind:

IC50 (H1975)	IC50 (HCC827)	IC50 (LOVO)	IC50 (H358)	IC50 (EGFR T790M/L858R)	melting point	SMILES	inhibition of growth of H1975 xenograft tumor (in words) (H1975 xenograft tumor [2])	also measured
< 10 nM	–	–	100 to 1000 nM	< 1 nM	208 to 210 °C	C=CC(=O)Nc1cc(Nc2nccc(-n3c(=O)n(C)c4ccccc43)n2)c(C)cc1N(C)CCN(C)C [Compound 118, N-(2-((2-(dimethylamino)ethyl) (methyl)amino)-4-methyl-5-((4-(3-methyl-2-oxo-2,3-dihydro-1H-benzo[d]imidazol-1-yl)pyrimidin-2-yl)amino)phenyl)acrylamide]	tumor regression	–
< 10 nM	–	–	100 to 1000 nM	< 1 nM	208 to 210 °C	C=CC(=O)Nc1cc(Nc2nccc(-n3c(=O)n(C)c4cc(F)ccc43)n2)c(OC)cc1N(C)CCN(C)C [Compound 50, N-(2-((2-(dimethylamino)ethyl)(methyl)amino)-5-((4-(5-fluoro-3-methyl-2-oxo-2,3-dihydro-1H-benzo[d]imidazol-1-yl)pyrimidin-2-yl)amino)-4-methoxyphenyl)acrylamide]	tumor regression	absorption / blood exposure after oral administration (in words) [3]: well absorbed, with high blood exposure; AUC(0-inf) [3]: 598 ng·h/mL; Cmax [3]: 173 ng/mL; Tmax [3]: 1 h; half-life [3]: 3.1 h; AUC(0-t) [3]: 561 ng·h/mL; AUC(0-inf) [4]: 1470 ng·h/mL; Cmax [4]: 428 ng/mL; Tmax [4]: 1 h; half-life [4]: 1.45 h; AUC(0-t) ([4]; read-out: AUC0-24): 1420 ng·h/mL; T/C value (H1975 xenograft tumor [2]; 30 mg/kg qd as printed, 16 days after administration): −97%; Tumor inhibition T/C value (%) (H1975 xenograft tumor [1]; 10 mg/kg, 22 consecutive days): −65%; Weight change (%) (H1975 xenograft tumor [1]; 10 mg/kg, 22 consecutive days): 0.0%; Tumor inhibition T/C value (%) (H1975 xenograft tumor [1]; 20 mg/kg, 22 consecutive days): −95%; Weight change (%) (H1975 xenograft tumor [1]; 20 mg/kg, 22 consecutive days): −2.0%; Tumor inhibition T/C value (%) (H1975 xenograft tumor [1]; 40 mg/kg, 22 consecutive days): −100%; Weight change (%) (H1975 xenograft tumor [1]; 40 mg/kg, 22 consecutive days): −4.4%; tumor outcome (in words) (H1975 xenograft tumor [1]; high dose (40 mg/kg), 22 consecutive days): the tumor disappeared completely; dose dependence of inhibition of H1975 xenograft tumor growth (in words) (H1975 xenograft tumor [1]; oral, 10, 20 and 40 mg/kg): dose dependently inhibited
< 10 nM	–	> 1000 nM	100 to 1000 nM	< 1 nM	183 to 185 °C	C=CC(=O)Nc1cc(Nc2nccc(-n3c(=O)n(C)c4cc(C#N)ccc43)n2)c(OC)cc1N(C)CCN(C)C [Compound 52, N-(5-((4-(5-cyano-3-methyl-2-oxo-2,3-dihydro-1H-benzo[d]imidazol-1-yl)pyrimidin-2-yl)amino)-2-((2-(dimethylamino)ethyl)(methyl)amino)-4-methoxyphenyl)acrylamide]	–	–
